Reference: the kinase profiling compilation of Christmann-Franck et al. (2016)

Tests used:
Assay in all cases: KINOMEscan competition binding
Settings in all cases: compound 0.5 µM
ACVR2A (human) = ACVR2A (human) (UniProt P27037)
BMPR2 (human) = BMPR2 (human) (UniProt Q13873)
BRSK1 (human) = BRSK1 (human) (UniProt Q8TDC3)
BRSK2 (human) = BRSK2 (human) (UniProt Q8IWQ3)
BTK (human) = BTK (human) (UniProt Q06187)
CAMK2B (human) = CAMK2B (human) (UniProt Q13554)
CDK11B (human) = CDK11B (human) (UniProt P21127)
CDK13 (human) = CDK13 (human) (UniProt Q14004)
CDK18 (human) = CDK18 (human) (UniProt Q07002)
CDK3 (human) = CDK3 (human) (UniProt Q00526)
Sequence of CDK3 (human) (Q00526 whole entry, looked up): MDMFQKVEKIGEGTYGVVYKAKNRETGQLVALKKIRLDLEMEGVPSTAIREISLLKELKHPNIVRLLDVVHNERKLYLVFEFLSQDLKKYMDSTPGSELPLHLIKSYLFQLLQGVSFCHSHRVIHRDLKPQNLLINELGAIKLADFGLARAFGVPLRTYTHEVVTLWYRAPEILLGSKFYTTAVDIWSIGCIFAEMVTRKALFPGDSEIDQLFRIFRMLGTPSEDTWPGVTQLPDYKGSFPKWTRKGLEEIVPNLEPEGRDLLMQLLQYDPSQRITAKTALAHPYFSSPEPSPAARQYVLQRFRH

CDK4 CCND1 (human) = CDK4 CCND1 (human) (UniProt P11802+P24385)
CSK (human) = CSK (human) (UniProt P41240)
CSNK1D (human) = CSNK1D (human) (UniProt P48730)
CSNK2A2 (human) = CSNK2A2 (human) (UniProt P19784)
DCLK2 (human) = DCLK2 (human) (UniProt Q8N568)
EPHA1 (human) = EPHA1 (human) (UniProt P21709)
EPHA8 (human) = EPHA8 (human) (UniProt P29322)
EPHB6 (human) = EPHB6 (human) (UniProt O15197)
FGFR1 (human) = FGFR1 (human) (UniProt P11362)
FLT4 (human) = FLT4 (human) (UniProt P35916)
GSK3A (human) = GSK3A (human) (UniProt P49840)
IKBKB (human) = IKBKB (human) (UniProt O14920)
[1] = tested on: KIT (human), P10721 [D816H]
MAP4K2 (human) = MAP4K2 (human) (UniProt Q12851)
MAPK12 (human) = MAPK12 (human) (UniProt P53778)
MAPK14 (human) = MAPK14 (human) (UniProt Q16539)
MKNK1 (human) = MKNK1 (human) (UniProt Q9BUB5)
MST1R (human) = MST1R (human) (UniProt Q04912)
NUAK1 (human) = NUAK1 (human) (UniProt O60285)
[2] = tested on: PIK3CA (human), P42336 [Q546K]
Sequence of PIK3CA (human), P42336 [Q546K] (P42336 whole entry Q546K, looked up): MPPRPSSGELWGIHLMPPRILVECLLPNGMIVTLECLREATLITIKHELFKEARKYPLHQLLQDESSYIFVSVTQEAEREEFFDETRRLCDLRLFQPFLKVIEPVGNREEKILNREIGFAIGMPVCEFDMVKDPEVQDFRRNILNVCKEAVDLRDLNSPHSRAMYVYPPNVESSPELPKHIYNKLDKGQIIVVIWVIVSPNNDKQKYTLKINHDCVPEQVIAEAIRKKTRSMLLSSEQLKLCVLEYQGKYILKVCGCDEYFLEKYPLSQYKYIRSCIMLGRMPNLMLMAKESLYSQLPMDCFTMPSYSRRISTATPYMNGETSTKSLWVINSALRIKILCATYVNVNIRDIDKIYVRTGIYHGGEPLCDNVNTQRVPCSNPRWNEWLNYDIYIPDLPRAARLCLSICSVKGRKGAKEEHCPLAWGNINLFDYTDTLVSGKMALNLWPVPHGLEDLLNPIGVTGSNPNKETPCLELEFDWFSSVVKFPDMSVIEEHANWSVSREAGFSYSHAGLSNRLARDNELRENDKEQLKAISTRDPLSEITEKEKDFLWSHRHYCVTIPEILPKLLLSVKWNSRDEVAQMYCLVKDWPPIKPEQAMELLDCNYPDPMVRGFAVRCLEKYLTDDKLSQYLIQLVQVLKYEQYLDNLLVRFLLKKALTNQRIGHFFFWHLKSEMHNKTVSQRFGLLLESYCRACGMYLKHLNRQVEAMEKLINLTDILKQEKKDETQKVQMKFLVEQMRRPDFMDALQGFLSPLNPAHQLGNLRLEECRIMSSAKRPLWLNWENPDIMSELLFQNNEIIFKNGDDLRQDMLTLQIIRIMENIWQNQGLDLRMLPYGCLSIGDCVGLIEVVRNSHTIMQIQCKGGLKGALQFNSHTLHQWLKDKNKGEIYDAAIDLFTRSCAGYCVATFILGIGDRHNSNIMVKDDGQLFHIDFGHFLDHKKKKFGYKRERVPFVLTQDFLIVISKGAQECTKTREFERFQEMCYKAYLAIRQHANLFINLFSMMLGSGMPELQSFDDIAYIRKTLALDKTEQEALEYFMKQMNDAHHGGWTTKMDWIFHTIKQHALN

PIM2 (human) = PIM2 (human) (UniProt Q9P1W9)
PLK2 (human) = PLK2 (human) (UniProt Q9NYY3)
PLK4 (human) = PLK4 (human) (UniProt O00444)
Sequence of PLK4 (human) (O00444 whole entry, looked up): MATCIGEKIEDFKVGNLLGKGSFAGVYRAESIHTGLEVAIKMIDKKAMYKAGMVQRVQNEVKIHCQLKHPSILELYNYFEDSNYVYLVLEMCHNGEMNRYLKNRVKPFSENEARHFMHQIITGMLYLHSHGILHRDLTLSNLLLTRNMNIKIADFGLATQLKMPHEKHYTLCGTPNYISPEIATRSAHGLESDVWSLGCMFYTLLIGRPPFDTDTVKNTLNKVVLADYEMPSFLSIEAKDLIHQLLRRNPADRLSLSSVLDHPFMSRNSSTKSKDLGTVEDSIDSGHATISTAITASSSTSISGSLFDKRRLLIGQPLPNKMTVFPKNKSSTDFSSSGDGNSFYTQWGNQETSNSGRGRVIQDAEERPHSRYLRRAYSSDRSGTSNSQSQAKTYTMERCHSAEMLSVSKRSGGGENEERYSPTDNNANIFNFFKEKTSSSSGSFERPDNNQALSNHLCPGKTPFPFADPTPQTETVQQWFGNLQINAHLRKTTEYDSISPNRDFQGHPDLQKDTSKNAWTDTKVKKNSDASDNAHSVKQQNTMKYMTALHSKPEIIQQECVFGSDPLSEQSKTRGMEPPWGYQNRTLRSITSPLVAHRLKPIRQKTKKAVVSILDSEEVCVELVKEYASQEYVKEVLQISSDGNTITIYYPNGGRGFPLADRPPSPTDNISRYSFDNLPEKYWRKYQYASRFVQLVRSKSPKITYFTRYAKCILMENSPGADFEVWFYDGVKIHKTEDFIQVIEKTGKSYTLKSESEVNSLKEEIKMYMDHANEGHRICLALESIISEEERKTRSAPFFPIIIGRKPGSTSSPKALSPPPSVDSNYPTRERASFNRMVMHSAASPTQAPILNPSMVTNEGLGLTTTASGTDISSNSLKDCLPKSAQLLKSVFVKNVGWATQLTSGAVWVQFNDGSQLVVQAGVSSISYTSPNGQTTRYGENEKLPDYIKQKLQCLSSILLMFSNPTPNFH

PTK6 (human) = PTK6 (human) (UniProt Q13882)
[3] = tested on: RET (human), P07949 [V804M]
RPS6KA1 KD2 (human) = RPS6KA1 KD2 (human) (UniProt Q15418)
RPS6KA3 KD1 (human) = RPS6KA3 KD1 (human) (UniProt P51812)
STK38 (human) = STK38 (human) (UniProt Q15208)
TGFBR1 (human) = TGFBR1 (human) (UniProt P36897)
TSSK1B (human) = TSSK1B (human) (UniProt Q9BXA7)
[4] = target: TYK2 JH1 catalytic (human) (UniProt P29597)

Sequence of BRSK1 (human) (Q8TDC3 whole entry, looked up): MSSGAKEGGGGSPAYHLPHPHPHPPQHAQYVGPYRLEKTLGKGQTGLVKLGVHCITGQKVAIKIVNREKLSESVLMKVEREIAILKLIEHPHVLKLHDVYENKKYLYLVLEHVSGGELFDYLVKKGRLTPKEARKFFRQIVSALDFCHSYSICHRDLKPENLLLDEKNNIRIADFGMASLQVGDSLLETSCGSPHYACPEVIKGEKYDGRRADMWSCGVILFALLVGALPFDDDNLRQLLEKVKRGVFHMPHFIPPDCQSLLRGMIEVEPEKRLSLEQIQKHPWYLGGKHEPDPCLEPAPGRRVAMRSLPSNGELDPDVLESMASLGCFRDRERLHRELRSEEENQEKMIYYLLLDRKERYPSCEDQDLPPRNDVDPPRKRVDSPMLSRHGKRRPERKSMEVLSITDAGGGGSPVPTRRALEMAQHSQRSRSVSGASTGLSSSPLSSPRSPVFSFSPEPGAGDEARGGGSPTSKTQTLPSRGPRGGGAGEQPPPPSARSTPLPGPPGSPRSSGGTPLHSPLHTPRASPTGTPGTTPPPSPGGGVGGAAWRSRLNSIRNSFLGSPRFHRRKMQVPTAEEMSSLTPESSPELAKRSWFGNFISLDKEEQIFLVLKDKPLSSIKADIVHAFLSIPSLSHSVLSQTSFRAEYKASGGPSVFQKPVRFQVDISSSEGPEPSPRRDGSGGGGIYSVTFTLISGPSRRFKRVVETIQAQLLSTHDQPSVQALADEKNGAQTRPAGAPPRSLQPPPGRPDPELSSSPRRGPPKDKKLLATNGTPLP
Sequence of CAMK2B (human) (Q13554 whole entry, looked up): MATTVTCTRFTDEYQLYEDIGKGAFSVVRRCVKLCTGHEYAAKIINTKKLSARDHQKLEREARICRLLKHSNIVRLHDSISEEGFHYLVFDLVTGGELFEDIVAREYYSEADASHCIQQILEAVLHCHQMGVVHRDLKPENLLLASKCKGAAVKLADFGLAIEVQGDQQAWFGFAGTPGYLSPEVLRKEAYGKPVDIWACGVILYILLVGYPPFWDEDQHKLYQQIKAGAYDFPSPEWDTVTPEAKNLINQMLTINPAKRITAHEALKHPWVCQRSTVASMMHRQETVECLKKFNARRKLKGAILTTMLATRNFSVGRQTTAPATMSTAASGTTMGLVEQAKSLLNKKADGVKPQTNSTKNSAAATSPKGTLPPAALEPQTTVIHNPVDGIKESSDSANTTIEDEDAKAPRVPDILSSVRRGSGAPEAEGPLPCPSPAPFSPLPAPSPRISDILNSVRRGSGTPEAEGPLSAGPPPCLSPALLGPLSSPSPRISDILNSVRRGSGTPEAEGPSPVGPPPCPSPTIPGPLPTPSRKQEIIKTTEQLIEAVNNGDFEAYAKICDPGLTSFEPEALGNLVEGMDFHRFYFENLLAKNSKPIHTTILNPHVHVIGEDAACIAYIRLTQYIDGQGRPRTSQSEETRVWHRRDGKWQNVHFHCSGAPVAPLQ
Sequence of BTK (human) (Q06187 whole entry, looked up): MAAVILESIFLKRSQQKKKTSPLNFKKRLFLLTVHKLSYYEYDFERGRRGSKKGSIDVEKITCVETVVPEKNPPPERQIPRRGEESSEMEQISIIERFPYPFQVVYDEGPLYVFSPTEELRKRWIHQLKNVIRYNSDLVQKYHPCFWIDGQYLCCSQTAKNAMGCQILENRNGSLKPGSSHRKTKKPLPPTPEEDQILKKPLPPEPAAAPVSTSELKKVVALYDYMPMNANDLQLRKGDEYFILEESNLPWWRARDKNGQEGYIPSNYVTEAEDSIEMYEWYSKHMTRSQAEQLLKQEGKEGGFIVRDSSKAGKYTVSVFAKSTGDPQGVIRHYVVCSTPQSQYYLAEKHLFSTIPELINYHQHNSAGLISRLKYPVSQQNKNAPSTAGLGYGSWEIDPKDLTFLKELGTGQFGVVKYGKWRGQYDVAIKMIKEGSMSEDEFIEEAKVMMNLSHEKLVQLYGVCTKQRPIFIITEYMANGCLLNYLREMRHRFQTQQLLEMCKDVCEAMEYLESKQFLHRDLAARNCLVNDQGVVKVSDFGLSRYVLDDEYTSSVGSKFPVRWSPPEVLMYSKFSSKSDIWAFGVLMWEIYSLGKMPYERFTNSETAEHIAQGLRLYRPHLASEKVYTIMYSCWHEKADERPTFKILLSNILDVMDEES
Sequence of ACVR2A (human) (P27037 whole entry, looked up): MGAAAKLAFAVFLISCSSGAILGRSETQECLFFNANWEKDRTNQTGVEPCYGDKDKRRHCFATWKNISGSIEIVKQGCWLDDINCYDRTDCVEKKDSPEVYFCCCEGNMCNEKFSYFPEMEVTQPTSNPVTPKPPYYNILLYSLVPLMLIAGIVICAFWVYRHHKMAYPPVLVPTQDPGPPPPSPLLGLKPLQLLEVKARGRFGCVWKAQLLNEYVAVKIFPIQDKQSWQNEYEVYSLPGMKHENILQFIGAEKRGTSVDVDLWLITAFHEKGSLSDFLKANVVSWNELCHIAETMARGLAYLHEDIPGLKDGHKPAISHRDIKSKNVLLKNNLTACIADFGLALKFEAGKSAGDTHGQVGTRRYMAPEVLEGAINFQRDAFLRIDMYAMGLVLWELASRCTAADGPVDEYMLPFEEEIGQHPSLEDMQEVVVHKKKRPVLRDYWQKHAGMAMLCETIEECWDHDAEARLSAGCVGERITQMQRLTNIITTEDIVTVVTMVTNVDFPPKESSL

Cn1c2ccccc2c2c3c(c4c5ccccc5n(CCC#N)c4c21)CNC3=O
kinase still bound, per cent of control (ACVR2A (human)): 100% | kinase still bound, per cent of control (BMPR2 (human)): 100% | kinase still bound, per cent of control (BRSK1 (human)): 51% | kinase still bound, per cent of control (BRSK2 (human)): 49% | kinase still bound, per cent of control (BTK (human)): 83% | kinase still bound, per cent of control (CAMK2B (human)): 63% | kinase still bound, per cent of control (CDK11B (human)): 100% | kinase still bound, per cent of control (CDK13 (human)): 100% | kinase still bound, per cent of control (CDK18 (human)): 91% | kinase still bound, per cent of control (CDK3 (human)): 75% | kinase still bound, per cent of control (CDK4 CCND1 (human)): 57% | kinase still bound, per cent of control (CSK (human)): 100% | kinase still bound, per cent of control (CSNK1D (human)): 81% | kinase still bound, per cent of control (CSNK2A2 (human)): 65% | kinase still bound, per cent of control (DCLK2 (human)): 100% | kinase still bound, per cent of control (EPHA1 (human)): 97% | kinase still bound, per cent of control (EPHA8 (human)): 90% | kinase still bound, per cent of control (EPHB6 (human)): 50% | kinase still bound, per cent of control (FGFR1 (human)): 74% | kinase still bound, per cent of control (FLT4 (human)): 62% | kinase still bound, per cent of control (GSK3A (human)): 100% | kinase still bound, per cent of control (IKBKB (human)): 50% | kinase still bound, per cent of control [1]: 30% | kinase still bound, per cent of control (MAP4K2 (human)): 1.1% | kinase still bound, per cent of control (MAPK12 (human)): 68% | kinase still bound, per cent of control (MAPK14 (human)): 95% | kinase still bound, per cent of control (MKNK1 (human)): 86% | kinase still bound, per cent of control (MST1R (human)): 100% | kinase still bound, per cent of control (NUAK1 (human)): 89% | kinase still bound, per cent of control [2]: 100% | kinase still bound, per cent of control (PIM2 (human)): 100% | kinase still bound, per cent of control (PLK2 (human)): 100% | kinase still bound, per cent of control (PLK4 (human)): 6.5% | kinase still bound, per cent of control (PTK6 (human)): 77% | kinase still bound, per cent of control [3]: 0% | kinase still bound, per cent of control (RPS6KA1 KD2 (human)): 88% | kinase still bound, per cent of control (RPS6KA3 KD1 (human)): 25% | kinase still bound, per cent of control (STK38 (human)): 100% | kinase still bound, per cent of control (TGFBR1 (human)): 79% | kinase still bound, per cent of control (TSSK1B (human)): 82% | kinase still bound, per cent of control [4]: 0.6%
